Test results taken from PubChem BioAssay AID1259407 (Chemical Carcinogenesis Research Information System (CCRIS), 2018).
Activity calls are given as the source filed them. No rule for the calls is given here.

Tested on: CCRIS mutagenicity, Ames/micronucleus/aberration tests
Experiment: CCRIS mutagenicity studies
[1] = Test System: AMES SALMONELLA TYPHIMURIUM, Strain/Indicator: TA98, Metabolic Activation: NONE, Method: PREINCUBATION
[2] = Test System: AMES SALMONELLA TYPHIMURIUM, Strain/Indicator: TA100, Metabolic Activation: NONE, Method: PREINCUBATION
[3] = Test System: AMES SALMONELLA TYPHIMURIUM, Strain/Indicator: TA1535, Metabolic Activation: NONE, Method: PREINCUBATION
[4] = Test System: AMES SALMONELLA TYPHIMURIUM, Strain/Indicator: TA1537, Metabolic Activation: NONE, Method: PREINCUBATION

How did the mutagenic call [1] turn out when `CC1CC(C)C(=O)C1=O` (stereo not drawn) was run?
The mutagenic call was “inactive; negative”.

And the mutagenic call (Test System: AMES SALMONELLA TYPHIMURIUM, Strain/Indicator: TA98, Metabolic Activation: S-9, Method: PREINCUBATION)?
The mutagenic call was “inactive; negative”.

What about the mutagenic call [2] of the same compound?
The mutagenic call was “inactive; negative”.

What about the mutagenic call (Test System: AMES SALMONELLA TYPHIMURIUM, Strain/Indicator: TA100, Metabolic Activation: S-9, Method: PREINCUBATION) of the same compound?
Its mutagenic call is “inactive; negative”.

What about the mutagenic call [3] of the same compound?
Its mutagenic call is “inactive; negative”.

And the mutagenic call (Test System: AMES SALMONELLA TYPHIMURIUM, Strain/Indicator: TA1535, Metabolic Activation: S-9, Method: PREINCUBATION)?
The mutagenic call was “inactive; negative”.

And the mutagenic call [4]?
The mutagenic call was “inactive; negative”.

And the mutagenic call (Test System: AMES SALMONELLA TYPHIMURIUM, Strain/Indicator: TA1537, Metabolic Activation: S-9, Method: PREINCUBATION)?
The mutagenic call was “inactive; negative”.

And the mutagenic call (Test System: E.COLI, Strain/Indicator: WP2 UVRA, Metabolic Activation: NONE, Method: PREINCUBATION)?
The mutagenic call was “inactive; negative”.

What about the mutagenic call (Test System: E.COLI, Strain/Indicator: WP2 UVRA, Metabolic Activation: S-9, Method: PREINCUBATION) of the same compound?
Its mutagenic call is “inactive; negative”.

For `O=C1CCc2c1ccc1c2ccc2ccccc21`, which mutagenic call (Test System: AMES SALMONELLA TYPHIMURIUM, Strain/Indicator: TA100, Metabolic Activation: RAT, LIVER, MICROSOMES, AROCLOR 1254, Method: STANDARD PLATE) is on record?
The mutagenic call was “active; positive”.

And the mutagenic call (Test System: AMES SALMONELLA TYPHIMURIUM, Strain/Indicator: TA100, Metabolic Activation: RAT, LIVER, MICROSOMES, BENZO[A]PYRENE, Method: STANDARD PLATE)?
Its mutagenic call is “inactive; negative”.

And the mutagenic call (Test System: AMES SALMONELLA TYPHIMURIUM, Strain/Indicator: TA100, Metabolic Activation: RAT, LIVER, MICROSOMES, CLOFIBRATE, Method: STANDARD PLATE)?
The mutagenic call was “inactive; negative”.

What about the mutagenic call (Test System: AMES SALMONELLA TYPHIMURIUM, Strain/Indicator: TA100, Metabolic Activation: RAT, LIVER, MICROSOMES, DEXAMETHASONE, Method: STANDARD PLATE) of the same compound?
The mutagenic call was “inactive; negative”.

And the mutagenic call (Test System: AMES SALMONELLA TYPHIMURIUM, Strain/Indicator: TA100, Metabolic Activation: RAT, LIVER, MICROSOMES, ISONIAZID, Method: STANDARD PLATE)?
Its mutagenic call is “inactive; negative”.

And the mutagenic call (Test System: AMES SALMONELLA TYPHIMURIUM, Strain/Indicator: TA100, Metabolic Activation: RAT, LIVER, MICROSOMES, PHENOBARBITONE, Method: STANDARD PLATE)?
Its mutagenic call is “inactive; negative”.

Which mutagenic call (Test System: AMES SALMONELLA TYPHIMURIUM, Strain/Indicator: TA98, Metabolic Activation: HAMSTER, LIVER, S-9, Method: PREINCUBATION) does the source give for `Nc1ccc(-c2cc(Cl)c(N)c(Cl)c2)cc1` here?
Its mutagenic call is “active; positive”.

What about the mutagenic call [1] of the same compound?
Its mutagenic call is “inactive; negative”.

How did the mutagenic call (Test System: AMES SALMONELLA TYPHIMURIUM, Strain/Indicator: TA98(1,8-DNP6), Metabolic Activation: NONE, Method: PREINCUBATION) turn out when `O=[N+]([O-])c1ccc2c(c1)oc1ccccc12` was run?
Its mutagenic call is “active; positive”.

What about the mutagenic call (Test System: AMES SALMONELLA TYPHIMURIUM, Strain/Indicator: TA98(1,8-DNP6), Metabolic Activation: NONE, Method: SUSPENSION) of the same compound?
The mutagenic call was “active; positive”.

What about the mutagenic call (Test System: AMES SALMONELLA TYPHIMURIUM, Strain/Indicator: TA98(1,8-DNP6), Metabolic Activation: RAT, LIVER, S-9, PCB (5%), Method: PREINCUBATION) of the same compound?
The mutagenic call was “active; positive”.

What about the mutagenic call (Test System: AMES SALMONELLA TYPHIMURIUM, Strain/Indicator: TA98(NR), Metabolic Activation: NONE, Method: PREINCUBATION) of the same compound?
Its mutagenic call is “active; positive”.

And the mutagenic call (Test System: AMES SALMONELLA TYPHIMURIUM, Strain/Indicator: TA98(NR), Metabolic Activation: NONE, Method: SUSPENSION)?
The mutagenic call was “active; positive”.

And the mutagenic call (Test System: AMES SALMONELLA TYPHIMURIUM, Strain/Indicator: TA98(NR), Metabolic Activation: RAT, LIVER, S-9 (10%), Method: PREINCUBATION)?
The mutagenic call was “active; positive”.

And the mutagenic call (Test System: AMES SALMONELLA TYPHIMURIUM, Strain/Indicator: TA98(NR), Metabolic Activation: RAT, LIVER, S-9, 3-METHYLCHOLANTHRENE (10%), Method: PREINCUBATION)?
The mutagenic call was “active; positive”.

What about the mutagenic call (Test System: AMES SALMONELLA TYPHIMURIUM, Strain/Indicator: TA98(NR), Metabolic Activation: RAT, LIVER, S-9, BETA-NAPHTHOFLAVONE (10%), Method: PREINCUBATION) of the same compound?
The mutagenic call was “active; positive”.

And the mutagenic call (Test System: AMES SALMONELLA TYPHIMURIUM, Strain/Indicator: TA98(NR), Metabolic Activation: RAT, LIVER, S-9, PCB (5%), Method: PREINCUBATION)?
The mutagenic call was “active; positive”.

What about the mutagenic call (Test System: AMES SALMONELLA TYPHIMURIUM, Strain/Indicator: TA98(NR), Metabolic Activation: RAT, LIVER, S-9, PCB (10%), Method: PREINCUBATION) of the same compound?
The mutagenic call was “active; positive”.

What about the mutagenic call (Test System: AMES SALMONELLA TYPHIMURIUM, Strain/Indicator: TA98(NR), Metabolic Activation: RAT, LIVER, S-9, PHENOBARBITAL (10%), Method: PREINCUBATION) of the same compound?
The mutagenic call was “active; positive”.

What about the mutagenic call [1] of the same compound?
Its mutagenic call is “active; positive”.

And the mutagenic call (Test System: AMES SALMONELLA TYPHIMURIUM, Strain/Indicator: TA98, Metabolic Activation: NONE, Method: STANDARD PLATE)?
Its mutagenic call is “active; positive”.

And the mutagenic call (Test System: AMES SALMONELLA TYPHIMURIUM, Strain/Indicator: TA98, Metabolic Activation: NONE, Method: SUSPENSION)?
Its mutagenic call is “active; positive”.

And the mutagenic call (Test System: AMES SALMONELLA TYPHIMURIUM, Strain/Indicator: TA98, Metabolic Activation: RAT, LIVER, S-9, PCB (5%), Method: PREINCUBATION)?
Its mutagenic call is “active; positive”.

What about the mutagenic call (Test System: AMES SALMONELLA TYPHIMURIUM, Strain/Indicator: TA98, Metabolic Activation: RAT, LIVER, S-9, PCB, Method: SUSPENSION) of the same compound?
The mutagenic call was “active; positive”.

And the mutagenic call (Test System: AMES SALMONELLA TYPHIMURIUM, Strain/Indicator: TA98, Metabolic Activation: S-9, PHENOBARBITAL AND 5,6-BENZOFLAVONE, Method: STANDARD PLATE)?
The mutagenic call was “active; positive”.

And the mutagenic call [2]?
The mutagenic call was “inactive; negative”.

What about the mutagenic call (Test System: AMES SALMONELLA TYPHIMURIUM, Strain/Indicator: TA100, Metabolic Activation: NONE, Method: STANDARD PLATE) of the same compound?
Its mutagenic call is “active; positive”.

What about the mutagenic call (Test System: AMES SALMONELLA TYPHIMURIUM, Strain/Indicator: TA100, Metabolic Activation: NONE, Method: SUSPENSION) of the same compound?
The mutagenic call was “active; positive”.

And the mutagenic call (Test System: AMES SALMONELLA TYPHIMURIUM, Strain/Indicator: TA100, Metabolic Activation: RAT, LIVER, S-9, PCB (5%), Method: PREINCUBATION)?
Its mutagenic call is “inactive; negative”.

And the mutagenic call (Test System: AMES SALMONELLA TYPHIMURIUM, Strain/Indicator: TA100, Metabolic Activation: RAT, LIVER, S-9, PCB, Method: SUSPENSION)?
Its mutagenic call is “inactive; negative”.

And the mutagenic call (Test System: AMES SALMONELLA TYPHIMURIUM, Strain/Indicator: TA100, Metabolic Activation: S-9, PHENOBARBITAL AND 5,6-BENZOFLAVONE, Method: STANDARD PLATE)?
The mutagenic call was “active; positive”.

For `CN(C)CCN(Cc1ccsc1)c1ccccn1`, which mutagenic call (Test System: AMES SALMONELLA TYPHIMURIUM, Strain/Indicator: TA98, Metabolic Activation: HAMSTER, LIVER, S-9, AROCLOR 1254 (10%), Method: PREINCUBATION) is on record?
The mutagenic call was “inactive; negative”.

And the mutagenic call [1]?
The mutagenic call was “inactive; negative”.

What about the mutagenic call (Test System: AMES SALMONELLA TYPHIMURIUM, Strain/Indicator: TA98, Metabolic Activation: RAT, LIVER, S-9, AROCLOR 1254 (10%), Method: PREINCUBATION) of the same compound?
The mutagenic call was “inactive; negative”.

And the mutagenic call (Test System: AMES SALMONELLA TYPHIMURIUM, Strain/Indicator: TA100, Metabolic Activation: HAMSTER, LIVER, S-9, AROCLOR 1254 (10%), Method: PREINCUBATION)?
Its mutagenic call is “inactive; negative”.

What about the mutagenic call [2] of the same compound?
Its mutagenic call is “inactive; negative”.

And the mutagenic call (Test System: AMES SALMONELLA TYPHIMURIUM, Strain/Indicator: TA100, Metabolic Activation: RAT, LIVER, S-9, AROCLOR 1254 (10%), Method: PREINCUBATION)?
Its mutagenic call is “inactive; negative”.

What about the mutagenic call (Test System: AMES SALMONELLA TYPHIMURIUM, Strain/Indicator: TA1535, Metabolic Activation: HAMSTER, LIVER, S-9, AROCLOR 1254 (10%), Method: PREINCUBATION) of the same compound?
The mutagenic call was “inactive; negative”.

What about the mutagenic call [3] of the same compound?
The mutagenic call was “inactive; negative”.

What about the mutagenic call (Test System: AMES SALMONELLA TYPHIMURIUM, Strain/Indicator: TA1535, Metabolic Activation: RAT, LIVER, S-9, AROCLOR 1254 (10%), Method: PREINCUBATION) of the same compound?
The mutagenic call was “inactive; negative”.

What about the mutagenic call (Test System: AMES SALMONELLA TYPHIMURIUM, Strain/Indicator: TA1537, Metabolic Activation: HAMSTER, LIVER, S-9, AROCLOR 1254 (10%), Method: PREINCUBATION) of the same compound?
Its mutagenic call is “inactive; negative”.

And the mutagenic call [4]?
The mutagenic call was “inactive; negative”.

What about the mutagenic call (Test System: AMES SALMONELLA TYPHIMURIUM, Strain/Indicator: TA1537, Metabolic Activation: RAT, LIVER, S-9, AROCLOR 1254 (10%), Method: PREINCUBATION) of the same compound?
Its mutagenic call is “inactive; negative”.
